Assay results: patent US12422427B2, “Compounds for treatment of diseases and methods of screening therefor” (Max-Planck-Gesellschaft zur Förderung der Wissenschaften …, priority 2018, dated 2025)

How the values were obtained:
[1] = system: HeLa cells expressing FUS GFP; assay: Stress granule formation in HeLa FUS GFP cells under different stresses; assay type: cell-based; conditions: 10 μM; mitochondrial (rotenone), hyperosmotic (sorbitol) or arsenate stress
Method: The stressor, arsenate, will react with the thiol groups of lipoamide. Therefore, to exclude the possibility that lipoamide is acting only by removing the stressor, so it was further tested whether lipoic acid can prevent stress granule formation triggered by other stresses than arsenate (an oxidative) stress: Mitochondrial electron transport chain inhibition (rotenone), heat stress (42° C.), hyperosmotic stress (sorbitol, a non-metabolisable sugar), glycolysis inhibition ([…] in the absence of glucose) or serum starvation.
Various cellular stresses were achieved by replacing 1 h 1 mM potassium arsenate treatment with other conditions: 100 μM rotenone (R8875, Sigma Aldrich) from a 1 M stock in DMSO for 2 h (mitochondrial stress). […] Sorbitol (S1876, Sigma Aldrich) from a 4 M stock in H2O for 1 h (osmotic stress). 42° C. in normal growth medium for 30 m (heat stress). […] Appropriate solvent controls were used.

[2] = system: iPS MNs expressing P525L FUS; assay: Axon dieback of iPS-derived motor neurons expressing P525L FUS; assay type: cell-based, human; conditions: 2 μM in culture medium, 60 days
Excerpt: In humans, one cause of familial ALS is FUS mutation, particularly in the C terminal NLS. P525L is one such mutation, and iPSC-derived motor neurons (iPSC MNs) expressing P525L from ALS patients show defects consistent with motor neuron defects in the patient. iPSC MNs can be grown through silicone channels, positioning the soma on one side with the axons protruding through the channels to the far side. Such cultures can be maintained for long periods (>60 days). However, when expressing P525L FUS, the axons die back within this time period without exogenous cell stressors, although P525L FUS MNs have a greater propensity to form stress granules. This is similar to axon retraction leading to motor dysfunction in patients. Therefore whether lipoamide or lipoic acid was able to improve these phenotypes was tested. […] To test this the inventors analysed transport of lysosomes within the axons of iPS MNs expressing P525L FUS with or without lipoamide in comparison to iPS MNs expressing WT FUS (FIGS. 12A-12B). […]
For analysis of axon dieback transport AH-ALS1-F58 iPS MNs expressing P525L FUS or an isogenic control expressing WT FUS were grown with 2 μM compound or an equal volume of DMSO for 60 days. […] Experiments and analysis were performed blinded, and axonal dieback was scored qualitatively using phase contrast images captured every 10 to 20 days.

[3] = system: HeLa cells expressing FUS GFP; assay: HeLa cell compound dose responses (FUS GFP, arsenate stress); assay type: cell-based
[4] = 1 h pre-treatment, 1 h arsenate stress

| EC50 reducing stress granule number, compared among compounds ([3]; 1 h 1 mM arsenate stress) | EC50 ([3]; Homo sapiens, HeLa FUS GFP, 1 h 1 mM arsenate stress, read-out: cellular EC50) [µM] | Compound | stress granule formation [1] | axon die back [2] | nuclear/cytoplasm FUS partition, dose response [3, 4] | stress granule number, dose response [3, 4] |
| --- | --- | --- | --- | --- | --- | --- |
| comparable EC50 | ~10 | NC(=O)CCCCC1CCSS1 (racemic) [lipoamide, 5-(1,2-dithiolan-3-yl)pentanamide] | reduced stress granule formation | prevented such die back | increased nuclear/cytoplasm FUS partition | reducing the number of stress granules |
| comparable EC50 |  | O=C(O)CCCCC1CCSS1 (racemic) [lipoic acid, 5-(1,2-dithiolan-3-yl)pentanoic acid] | reduced stress granule formation | prevented such die back |  |  |
